Data on eight compounds can be found in publication PMC6359543, “Efficacy of Azatyrosine-Phenylbutyric Hydroxamides, a Histone Deacetylase Inhibitor, on Chemotherapy-Induced Gastrointestinal Mucositis” (International Journal of Molecular Sciences, 2019).

The subject of data set [1] is male ICR mice. In words: Micronucleus test. Particulars: Cyclophosphamide 200 mg/kg. The method, then: Male ICR mice (n = 5) were administered AzP orally by gavage, at doses of 5, 50, and 500 mg/kg body weight. […] At 24, 48, and 72 h after dosing, 2-μL blood samples were collected from the tail vein onto a slide stained with acridine orange (40 μg/mL). The ratio (%) of polychromatic erythrocytes (PCEs) to total erythrocytes was determined using fluorescence microscopy. In addition, the frequency of micronucleated polychromatic erythrocytes (MNPCEs; ‰) was counted to a total of 1000 erythrocytes or PCEs per animal.

The test system of data set [2] is IEC-6 cells. As to the kind of experiment: LPS-induced MAPK/Akt phosphorylation in IEC-6 cells (Western blot). It is filed as cell-based, Rat. To be noted: LPS 500 ng/mL, 10 min. The method, then:
Figure 6 Western blotting of IEC-6 cells treated with LPS and/or AzP. (A) IEC-6 cells (1 × 10^6 cells/mL) were dispensed on 6 cm dishes and (A) treated with LPS (500 ng/mL) for 10, 20, 30, 60, and 90 min. Data expressed as means ± SD from 3 independent experiments. * p < 0.05 as compared with the resting. (B) Treatment with LPS (500 ng/mL) for 10 min as indicated. Cells were treated with the indicated concentrations of AzP (5, 10, and 20 μM) or vehicle for 30 min before treatment with LPS. Cell lysates were collected for Western blot targeting p-ERK phosphorylation (Thr202/Tyr204, B), MEK phosphorylation ([…], C), and Akt phosphorylation (Ser473, D). Data expressed as means ± SD from 3 independent experiments. ### p < 0.001 as compared with the resting, * p < 0.05, ** p < 0.01 and *** p < 0.001 as compared with the vehicle.
IEC-6 cells were incubated in different AzP concentrations with/without LPS stimulation for 24 h. The homogenate from cells or tissues was then centrifuged at 14,000× g for 10 min at 4 °C and the supernatant was collected. Protein separation was performed using 10% reducing SDS-PAGE, electrotransferred onto polyvinylidene difluoride (PVDF), and immunoblotted with antibodies against inflammatory proteins as well as β-actin as control. Densitometry was performed using BioLight software V2000.01 (Uhldingen-Mühlhofen, Germany). The optical density of specific protein was normalized to an internal control and expressed as a ratio to control.
(A western blot detects proteins with antibodies after separation by electrophoresis.)

For data set [3], the system named is Salmonella typhimurium TA102. Particulars: Positive Control: 2-aminoanthrene 5 µg /plate. The protocol: Five strains of Salmonella typhimurium, TA98, TA102, TA100, TA1537, and TA1535, were obtained from Moltox (Boone, NC, USA). Mutagenicity was evaluated by the incorporation method in the presence or absence of S9 metabolic activation. A volume of 100 µL of each test bacterial culture (10^9 cells/mL), 2 mL soft agar (0.6% agar, 0.5% NaCl, 5 mM histidine, and […], pH 7.4, 40–50 °C), 0.5 mL S9 mixture (if necessary), and AzP were mixed well in a test tube. […] The revertant colonies were counted, and a positive mutagenic response was identified when (i) the number of revertants was at least double the spontaneous yield; (ii) a statistical significance (p ≤ 0.05) was found; and (iii) a reproducible positive dose response was present.

The test system of data set [4] is Salmonella typhimurium TA100. It is filed as cell-based.
Experimental: (§1) Five strains of Salmonella typhimurium, TA98, TA102, TA100, TA1537, and TA1535, were obtained from Moltox (Boone, NC, USA). Mutagenicity was evaluated by the incorporation method in the presence or absence of S9 metabolic activation [29]. A volume of 100 µL of each test bacterial culture (10^9 cells/mL), 2 mL soft agar (0.6% agar, 0.5% NaCl, 5 mM histidine, and 50 mM biotin, pH 7.4, 40–50 °C), 0.5 mL S9 mixture (if necessary), and AzP were mixed well in a test tube. […] The revertant colonies were counted, and a positive mutagenic response was identified when (i) the number of revertants was at least double the spontaneous yield; (ii) a statistical significance (p ≤ 0.05) was found; and (iii) a reproducible positive dose response was present.
Data set [5] concerns Salmonella typhimurium TA1535. It counts as cell-based.
Experimental: as §1
Data set [6] relates to Salmonella typhimurium TA1537. As to the kind of experiment: Salmonella/microsome reversion assay (Ames test), TA1537. It counts as cell-based. (The Ames test detects mutagens through reverse mutation in bacteria.)
Experimental: as §1
Data set [7] concerns C57BL/6 mice. To be noted: mouse, in vivo, ip, 11 mg/kg.
Experimental: C57BL/6 mice were treated with 11 mg/kg/day cisplatin on day 0. Gavages of 50, 100, and 250 mg/kg AzP were given on days −1, 0, and 1. From a total of 9 mice, 3 were sacrificed on days 3 and 5, and their intestine collected for further immunohistological observations. Weights were recorded daily until day 9.
For the mucositis model experiments using chemotherapy, 45 female C57BL/6 mice were randomly placed in 5 groups for 3 days of treatment with AzP (50–250 mg/kg) P.O. on days −1, 0 and 1. Cisplatin (11 mg/kg) was intraperitoneally injected on day 0 as the chemotherapy. Control mice were injected with an appropriate vehicle. Mice were weighed daily and expressed as relative mean body weight change (%) from baseline (day 0 = 100%) and monitored closely for signs of morbidity over the course of the weeks to follow. On days 3 and 5, 3 of 9 mice were randomly chosen from each group and sacrificed for further intestinal analysis (Figure 1B). Control mice were injected with HPβCD as vehicle.
Histological and immunohistological observations of the intestine were performed on mice pretreated with AzP or HPβCD, followed by a course of cisplatin chemotherapy as described above. The mice were euthanized, intestines were removed, and a segment of the swiss-rolled trimming jejunum underwent formalin fixation and paraffin embedding. Hematoxylin and eosin stain were performed to observe the morphometry of villus length and crypt depth [28]. Also, tissue sections were deparaffinized and rehydrated through a series of alcohols followed by antigen retrieval with Tris-EDTA buffer (10 mM TrisBase, 1 mM EDTA, 0.05% Tween 20, pH 9.0). Then, the HRP/DAB (ABC) Detection immunohistochemistry (IHC) Kit (Abcam, Cambridge, UK) was used. Tissue sections were quenched with endogenous peroxidase (3% hydrogen peroxide) for 10 min, followed by 5% Bovine serum albumin (BSA) blocking for 5 min and subsequent incubation with primary antibodies overnight at 4 °C. Following washing, the tissue sections were incubated with biotinylated secondary antibody for 10 min, followed by streptavidin peroxidase for another 10 min. After washing, the colorimetric reaction was developed by incubation with DAB substrate for 5 min and underwent microscopy observation.
Data set [8] concerns Chinese Hamster Ovary cells (CHO-K1). In words: Chromosome aberration assay. It is filed as cell-based. Particulars: Mitomycin C 1µg/mL. The method, then:
Chinese hamster ovary epithelial cells (CHO-K1, American Type Culture Collection, Manassas, VA, USA) were cultured in 6-cm dishes at a density of 2 × 10^5 cells/mL for chromosomal abnormality analysis. […] Colemid (0.1 μg/mL) was administered 3 h before trypsinization, followed by treatment with 0.9% sodium citrate at 37 °C and Carnoy’s solution (methanol:acetic acid, 3:1). The cells were stained with 3% Giemsa solution in 0.07 M phosphate buffer (pH 6.8) on glass slides. […] The data were expressed as the total mean number of chromosomal aberrations per treatment ± standard deviation (SD) from three independent experiments.

Data set [9] relates to Salmonella typhimurium TA98. In words: Salmonella/microsome reversion assay (Ames test), TA98. It is filed as cell-based. To be noted: Positive Control: 4-Nitro-o-phenylenediamine 2.5 µg / plate.
Experimental: as §1
The mark [10] stands for this setting: Positive Control: 2-aminoanthrene 5 µg /plate.
Where [11] appears, read: 3 hours without S9 metabolic activation.
Setting [12] is: 24 hours without S9 metabolic activation.
Setting [13] is: Positive Control: Sodium Azide 5 µg / plate.

As for `O=P1(N(CCCl)CCCl)NCCCO1` (stereo not drawn) [Cyclophosphamide, reference compound], the “Reticuloctes(%)” value in data set [1] (Day 1) was determined as 1.60±0.12 %; in [1] (Day 2), 0.93±0.07 %; in [1] (Day 3) it was 1.07±0.16 %.
For “lipopolysaccharide [LPS, reference compound]”, the “ERK phosphorylation compared to the control” value in data set [2] was determined as 1.8 ± 0.3 fold.
As to `Nc1ccc2cc3ccccc3cc2c1` [2-aminoanthrene, reference compound], the “Revertant colonies per plate (+S9) TA102” value in data set [3] is 1409.8±78.2. Further, the “Revertant colonies per plate (+S9) TA100” value in data set [4] (setting [10]) was found to be 1514.7±6.9. In addition, in [5] (setting [10]), the “Revertant colonies per plate (+S9) TA1535” value is 1182.9±81.6. In data set [6] (setting [10]), the “Revertant colonies per plate (+S9) TA1537” value is reported as 1282.8±109.
In the case of `N.N.[Cl][Pt][Cl]` [cisplatin, reference compound], in [7], the “Relative mean body weight (day 0 = 100%)” value is recorded as 76.0 ± 4.7%.
`Nc1c2ccccc2nc2ccccc12` [9-Aminoacridine, reference compound]: the “Revertant colonies per plate (-S9) TA1537” value in [6] (Positive Control: 9-Aminoacridine 50 µg /plate) came to 1671.8±184.
With `CO[C@@]12[C@H](COC(N)=O)C3=C(C(=O)C(C)=C(N)C3=O)N1C[C@@H]1N[C@@H]12` [Mitomycin C, reference compound], in data set [8] (setting [11]), the “Aberrant cell (%) With gap” value is reported as 7.67±1.15 %, the “Number of cells with structural aberrations (%) B: chromosome break” value was determined as 0.00±0.00%, the “Number of cells with structural aberrations (%) G: chromosome gap” value was 0.00±0.00% and the “Number of cells with structural aberrations (%) e: exchange” value was found to be 2.00±1.00 %. Also, in data set [8] (setting [12]), the “Aberrant cell (%) With gap” value stood at 10.00±1.73 %, the “Number of cells with structural aberrations (%) B: chromosome break” value is recorded as 0.00±0.00%, the “Number of cells with structural aberrations (%) G: chromosome gap” value stood at 0.00±0.00% and the “Number of cells with structural aberrations (%) e: exchange” value came out at 4.33±2.52 %.
Consider `[N-]=[N+]=[N-].[Na+]` [Sodium Azide, reference compound], for which, in data set [4] (setting [13]), the “Revertant colonies per plate (-S9) TA100” value is reported as 1433.6±94.4. Besides, in data set [5] (setting [13]), the “Revertant colonies per plate (-S9) TA1535” value is recorded as 1506.7±62.3.
For `Nc1ccc([N+](=O)[O-])cc1N` [4-Nitro-o-phenylenediamine, reference compound], the “Revertant colonies per plate (-S9) TA98” value in data set [9] came out at 1549.3±37.6.
